Experimental data published in the NIST ThermoML archive (doi:10.1021/je700699u).
± gives the expanded uncertainty stated by the source.

Test: cn = amount concentration of the nth substance listed, in mol/dm3
Conditions: 101 kPa, Liquid

N=C(N)NCCC[C@H](N)C(=O)[O-].[K+] [potassium L-argininate] + O
Conditions | mass density, 298.15 K [kg/m3] | mass density, 303.15 K [kg/m3] | mass density, 313.15 K [kg/m3] | mass density, 323.15 K [kg/m3] | mass density, 333.15 K [kg/m3] | viscosity, 298.15 K [mPa·s] | viscosity, 303.15 K [mPa·s] | viscosity, 313.15 K [mPa·s] | viscosity, 323.15 K [mPa·s] | viscosity, 333.15 K [mPa·s]
c1 = 0.238 | 1021 ± 2 | 1019 ± 2 | 1016 ± 2 | 1011 ± 2 | 1007 ± 2 | 1.026 ± 0.033 | 0.917 ± 0.03 | 0.75 ± 0.025 | 0.63 ± 0.022 | 0.539 ± 0.019
c1 = 0.479 | 1043 ± 2 | 1041 ± 2 | 1037 ± 2 | 1032 ± 2 | 1027 ± 2 | 1.215 ± 0.038 | 1.098 ± 0.035 | 0.886 ± 0.029 | 0.738 ± 0.025 | 0.632 ± 0.022
c1 = 0.725 | 1064 ± 2 | 1062 ± 2 | 1058 ± 2 | 1053 ± 2 | 1048 ± 2 | 1.431 ± 0.044 | 1.276 ± 0.04 | 1.035 ± 0.033 | 0.856 ± 0.028 | 0.723 ± 0.024
c1 = 0.971 | 1087 ± 3 | 1085 ± 3 | 1080 ± 3 | 1075 ± 3 | 1069 ± 3 | 1.882 ± 0.057 | 1.553 ± 0.047 | 1.244 ± 0.039 | 1.019 ± 0.033 | 0.848 ± 0.028

N[C@@H](CC(=O)O)C(=O)[O-].[K+] [potassium (S)-2-amino-3-carboxypropanoate] + O
Conditions | mass density, 298.15 K [kg/m3] | mass density, 303.15 K [kg/m3] | mass density, 313.15 K [kg/m3] | mass density, 323.15 K [kg/m3] | mass density, 333.15 K [kg/m3] | viscosity, 298.15 K [mPa·s] | viscosity, 303.15 K [mPa·s] | viscosity, 313.15 K [mPa·s] | viscosity, 323.15 K [mPa·s] | viscosity, 333.15 K [mPa·s]
c1 = 0.255 | 1029 ± 2 | 1027 ± 2 | 1024 ± 2 | 1020 ± 2 | 1015 ± 2 | 0.992 ± 0.032 | 0.887 ± 0.029 | 0.725 ± 0.024 | 0.613 ± 0.021 | 0.525 ± 0.019
c1 = 0.47 | 1059 ± 2 | 1057 ± 2 | 1053 ± 2 | 1049 ± 2 | 1045 ± 2 | 1.104 ± 0.035 | 0.998 ± 0.032 | 0.816 ± 0.027 | 0.693 ± 0.023 | 0.593 ± 0.021
c1 = 0.708 | 1089 ± 3 | 1087 ± 3 | 1083 ± 3 | 1079 ± 3 | 1074 ± 3 | 1.239 ± 0.039 | 1.115 ± 0.035 | 0.914 ± 0.03 | 0.771 ± 0.026 | 0.663 ± 0.023
c1 = 0.979 | 1119 ± 3 | 1117 ± 3 | 1113 ± 3 | 1109 ± 3 | 1105 ± 3 | 1.419 ± 0.044 | 1.269 ± 0.039 | 1.041 ± 0.033 | 0.865 ± 0.028 | 0.743 ± 0.025
c1 = 1.208 | 1147 ± 4 | 1145 ± 4 | 1141 ± 4 | 1137 ± 4 | 1133 ± 4 | 1.615 ± 0.049 | 1.45 ± 0.044 | 1.185 ± 0.037 | 0.994 ± 0.032 | 0.836 ± 0.027
c1 = 1.449 | 1176 ± 4 | 1173 ± 4 | 1169 ± 4 | 1166 ± 4 | 1162 ± 4 | 1.856 ± 0.056 | 1.667 ± 0.051 | 1.353 ± 0.042 | 1.142 ± 0.036 | 0.957 ± 0.031
